Laboratory results reported in ChEMBL document CHEMBL1201862, “PubChem BioAssay data set” (2004).
Active and inactive are the calls of the source.

Columns and labels:
Genome polyprotein = Genome polyprotein (dengue virus type 2, UniProt P29990); test: flavivirus cap methylation enzyme inhibition – biochemical, confirmation dose response, primary screen (AID 588689); assay type: functional
[1] = target: T1, Replicative DNA helicase DnaB (Mycobacterium tuberculosis, UniProt P9WMR3); test: DnaB intein splicing inhibitors, dose response, biochemical, cell-free fluorescence (AID 449749); assay type: functional
T1 sequence (P9WMR3 whole entry): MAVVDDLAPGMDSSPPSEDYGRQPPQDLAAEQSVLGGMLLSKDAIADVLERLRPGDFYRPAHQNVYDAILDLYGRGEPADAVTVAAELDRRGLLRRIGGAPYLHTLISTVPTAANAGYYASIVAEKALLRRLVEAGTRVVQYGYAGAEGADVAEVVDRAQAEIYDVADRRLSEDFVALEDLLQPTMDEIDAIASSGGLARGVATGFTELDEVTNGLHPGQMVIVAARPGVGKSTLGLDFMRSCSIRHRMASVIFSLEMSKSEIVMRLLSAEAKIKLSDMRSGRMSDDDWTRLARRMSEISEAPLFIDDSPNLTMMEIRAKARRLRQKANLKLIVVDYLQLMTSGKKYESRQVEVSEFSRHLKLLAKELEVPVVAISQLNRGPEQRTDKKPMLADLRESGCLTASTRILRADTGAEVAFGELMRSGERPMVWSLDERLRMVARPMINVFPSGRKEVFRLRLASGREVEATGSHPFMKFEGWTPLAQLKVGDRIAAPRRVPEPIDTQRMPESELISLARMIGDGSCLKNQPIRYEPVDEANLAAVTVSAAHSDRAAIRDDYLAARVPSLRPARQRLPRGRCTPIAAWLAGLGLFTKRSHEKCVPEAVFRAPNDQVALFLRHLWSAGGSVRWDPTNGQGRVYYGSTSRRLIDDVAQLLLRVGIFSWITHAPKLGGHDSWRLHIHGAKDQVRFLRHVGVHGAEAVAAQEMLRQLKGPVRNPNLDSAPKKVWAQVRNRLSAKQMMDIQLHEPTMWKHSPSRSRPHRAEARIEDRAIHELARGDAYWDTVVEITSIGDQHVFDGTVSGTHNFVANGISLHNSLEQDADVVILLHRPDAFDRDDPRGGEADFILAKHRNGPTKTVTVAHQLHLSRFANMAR

Protein RecA = target: T2, Protein RecA (Mycobacterium tuberculosis, UniProt P9WHJ3); test: Fluorescence Cell-Free Homogeneous Dose Retest to Identify Inhibitors of RecA-Intein Splicing Activity. [Related pubchem assays (depositor defined):AID2097, AID2223, AID489010, AID492950]; assay type: functional
T2 sequence (P9WHJ3 whole entry): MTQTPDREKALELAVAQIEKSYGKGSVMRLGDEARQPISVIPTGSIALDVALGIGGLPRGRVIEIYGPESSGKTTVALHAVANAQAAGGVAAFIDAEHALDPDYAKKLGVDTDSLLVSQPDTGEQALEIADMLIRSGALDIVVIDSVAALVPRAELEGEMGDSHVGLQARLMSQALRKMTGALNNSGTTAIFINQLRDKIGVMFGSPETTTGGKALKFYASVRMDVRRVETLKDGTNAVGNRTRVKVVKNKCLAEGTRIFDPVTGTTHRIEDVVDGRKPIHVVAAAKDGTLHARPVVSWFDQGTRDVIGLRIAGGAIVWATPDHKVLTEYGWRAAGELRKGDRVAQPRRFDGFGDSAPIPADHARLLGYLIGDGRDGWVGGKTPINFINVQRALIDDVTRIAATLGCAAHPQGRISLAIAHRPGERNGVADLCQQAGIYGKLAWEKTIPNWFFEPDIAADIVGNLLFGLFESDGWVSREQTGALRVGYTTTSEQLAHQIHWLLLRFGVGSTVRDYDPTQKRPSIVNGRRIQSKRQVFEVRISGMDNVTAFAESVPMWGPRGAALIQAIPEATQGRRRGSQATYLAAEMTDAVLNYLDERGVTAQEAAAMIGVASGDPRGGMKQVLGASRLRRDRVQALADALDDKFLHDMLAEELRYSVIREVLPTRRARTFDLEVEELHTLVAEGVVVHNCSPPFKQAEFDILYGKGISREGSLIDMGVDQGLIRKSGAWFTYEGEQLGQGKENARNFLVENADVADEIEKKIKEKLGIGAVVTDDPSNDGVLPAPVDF

Vero = test: viability of Vero cells under compound – cytotoxicity control for flavivirus capping enzyme inhibitors (AID 588742); assay type: functional; conditions: Chlorocebus sabaeus
CAAX prenyl protease 2 = target: T3, CAAX prenyl protease 2 (Saccharomyces cerevisiae S288c, UniProt Q03530); assay type: biochemical
T3 sequence (Q03530 whole entry): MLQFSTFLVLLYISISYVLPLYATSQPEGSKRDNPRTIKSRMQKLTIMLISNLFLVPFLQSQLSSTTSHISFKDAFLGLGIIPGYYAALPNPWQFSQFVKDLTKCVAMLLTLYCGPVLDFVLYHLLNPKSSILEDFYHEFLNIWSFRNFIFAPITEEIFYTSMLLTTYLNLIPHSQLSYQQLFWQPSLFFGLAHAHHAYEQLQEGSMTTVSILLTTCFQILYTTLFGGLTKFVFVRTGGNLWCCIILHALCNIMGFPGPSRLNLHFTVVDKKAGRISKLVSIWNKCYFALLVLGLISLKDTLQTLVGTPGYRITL

Trypsin = Trypsin (Sus scrofa, UniProt P00761); test: trypsin protease activity blockade – biochemical, quenched peptide fluorescence, cherry-pick, selectivity assay for Rce1 protease inhibitor project, dose response (AID 488789)
Cysteine protease ATG4B = target: T4, Cysteine protease ATG4B (Homo sapiens, UniProt Q9Y4P1); assay type: functional;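 note: Fluorescence-based dose-response confirmation assay measuring inhibition of ATG4B activity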
T4 sequence (Q9Y4P1 whole entry): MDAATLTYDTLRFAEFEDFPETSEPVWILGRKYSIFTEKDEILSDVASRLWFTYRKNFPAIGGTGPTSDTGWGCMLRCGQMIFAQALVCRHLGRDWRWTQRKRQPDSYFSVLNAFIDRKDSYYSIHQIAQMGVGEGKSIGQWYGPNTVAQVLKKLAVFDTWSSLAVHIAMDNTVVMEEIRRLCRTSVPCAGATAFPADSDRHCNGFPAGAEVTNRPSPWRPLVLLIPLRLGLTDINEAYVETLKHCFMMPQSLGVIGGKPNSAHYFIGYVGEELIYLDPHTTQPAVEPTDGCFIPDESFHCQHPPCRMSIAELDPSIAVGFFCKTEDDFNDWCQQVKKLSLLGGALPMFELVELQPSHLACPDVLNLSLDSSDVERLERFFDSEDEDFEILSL

Phospholipase A2 = Phospholipase A2 (Homo sapiens, UniProt P04054); assay type: functional;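 note: confirmatory dose-response counterscreen on phospholipase A2, testing hits that came from an ultra-high-throughput screen for ATG4B inhibitors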
[2] = Luminescence Cell-Based Dose Response HTS to Identify Activators of Luciferase Translation or Activity in H4 […] Cells. [Related pubchem assays: 1829 (Project Summary), 1814 (Primary HTS)]; assay type: functional
[3] = Luminescence Cell-Based Dose Confirmation HTS to Identify Activators of 5'UTR Stem-Loop Driven Alpha-Synuclein mRNA Translation in H4 Neuroglioblastoma Cells. [Related pubchem assays: 1829 (Project Summary), 1814 (Primary HTS)]; assay type: functional
[4] = target: G-protein coupled receptor 55 (Homo sapiens, UniProt Q9Y2T6); test: selective activators of receptor GPR55 – imaging, U2OS cells, beta-arrestin-GFP redistribution, primary screen (AID 1961); assay type: functional
H4 = test: Luminescence Cell-Based Dose Response HTS to Identify Activators of 5'UTR Stem-Loop Driven Prion Protein mRNA Translation in H4 Neuroglioblastoma Cells. [Related pubchem assays: 1829 (Project Summary), 1814 (Primary HTS)]; assay type: functional; conditions: Homo sapiens

Sequence of Genome polyprotein (P29990 2492-3391 limits assumed): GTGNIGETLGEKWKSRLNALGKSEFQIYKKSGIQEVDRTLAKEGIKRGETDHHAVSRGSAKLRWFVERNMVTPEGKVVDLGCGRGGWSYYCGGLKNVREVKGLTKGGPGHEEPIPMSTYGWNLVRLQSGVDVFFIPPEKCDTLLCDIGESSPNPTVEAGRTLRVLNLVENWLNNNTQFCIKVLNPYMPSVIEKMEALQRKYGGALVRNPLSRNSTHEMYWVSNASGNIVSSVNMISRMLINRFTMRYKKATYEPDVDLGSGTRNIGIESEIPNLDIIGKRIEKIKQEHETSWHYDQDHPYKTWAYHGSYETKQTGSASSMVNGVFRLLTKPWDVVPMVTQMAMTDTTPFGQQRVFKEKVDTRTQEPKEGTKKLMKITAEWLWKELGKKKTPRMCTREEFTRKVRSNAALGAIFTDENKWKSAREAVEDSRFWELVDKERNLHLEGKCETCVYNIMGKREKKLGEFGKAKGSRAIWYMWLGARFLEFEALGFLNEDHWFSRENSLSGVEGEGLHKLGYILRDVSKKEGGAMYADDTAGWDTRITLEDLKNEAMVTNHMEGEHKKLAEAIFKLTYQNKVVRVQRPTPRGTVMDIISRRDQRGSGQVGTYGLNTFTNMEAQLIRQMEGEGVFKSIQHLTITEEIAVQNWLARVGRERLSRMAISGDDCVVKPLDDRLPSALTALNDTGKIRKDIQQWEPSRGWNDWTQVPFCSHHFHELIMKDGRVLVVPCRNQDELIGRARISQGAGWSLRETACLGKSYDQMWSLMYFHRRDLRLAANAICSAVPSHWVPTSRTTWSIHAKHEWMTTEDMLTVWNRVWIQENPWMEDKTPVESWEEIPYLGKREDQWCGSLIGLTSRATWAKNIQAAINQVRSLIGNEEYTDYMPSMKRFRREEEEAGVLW
Sequence of Phospholipase A2 (P04054 whole entry): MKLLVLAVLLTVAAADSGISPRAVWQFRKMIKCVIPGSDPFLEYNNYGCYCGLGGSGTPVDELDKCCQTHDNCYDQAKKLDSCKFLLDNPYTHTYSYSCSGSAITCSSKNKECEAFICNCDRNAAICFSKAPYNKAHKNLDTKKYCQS
Sequence of Trypsin (P00761 whole entry): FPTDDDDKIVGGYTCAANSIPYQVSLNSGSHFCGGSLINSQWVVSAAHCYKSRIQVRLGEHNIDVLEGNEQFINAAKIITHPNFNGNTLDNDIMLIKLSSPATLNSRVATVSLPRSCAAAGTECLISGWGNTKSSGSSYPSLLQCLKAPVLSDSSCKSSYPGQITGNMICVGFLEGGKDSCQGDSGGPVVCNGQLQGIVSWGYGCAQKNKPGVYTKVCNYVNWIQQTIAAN
Sequence of G-protein coupled receptor 55 (Q9Y2T6 whole entry): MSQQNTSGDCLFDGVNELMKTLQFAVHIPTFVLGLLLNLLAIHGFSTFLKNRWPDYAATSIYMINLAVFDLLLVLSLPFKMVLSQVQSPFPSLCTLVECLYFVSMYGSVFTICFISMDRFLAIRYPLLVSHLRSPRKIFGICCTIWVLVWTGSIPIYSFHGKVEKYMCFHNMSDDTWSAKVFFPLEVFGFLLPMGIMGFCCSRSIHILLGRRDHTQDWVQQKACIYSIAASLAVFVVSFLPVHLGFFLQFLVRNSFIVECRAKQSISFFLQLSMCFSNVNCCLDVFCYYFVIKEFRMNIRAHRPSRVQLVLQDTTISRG

In the case of `Cc1nn(Cc2ccccc2)c2c1C(c1cccc(Cl)c1)C(C#N)=C(N)O2` (stereo unspecified), the IC50 (Genome polyprotein) is reported as > 100 µM (active), the AC50 [1] is reported as 5.7 µM (active) and the EC50 (Protein RecA) is reported as 3.26 µM (active). The CC50 (Vero) was > 40 µM (active).

In the case of `O=C1CSC(c2cn(-c3ccccc3)nc2-c2cc3ccccc3oc2=O)N1Cc1ccco1` (stereo unspecified), the AC50 (CAAX prenyl protease 2) is reported as 30.8 µM (active) and the AC50 (Trypsin) is reported as 9.09 µM (active).

For `O=C(O)c1cccc(CN2C(=O)S/C(=C/c3cccc([N+](=O)[O-])c3)C2=O)c1`, the IC50 (Genome polyprotein) was 83.2 µM (active) and the CC50 (Vero) was > 40 µM (active).

In the case of `Nc1nn(-c2ccccc2)c(N)c1N=Nc1ccccc1`, the IC50 (Cysteine protease ATG4B) is reported as 11.9 µM (active) and the IC50 (Phospholipase A2) is reported as 9 µM (active).

With `CC(C)(C)c1ccccc1/N=C/c1ccc2ccccc2n1` the IC50 (Cysteine protease ATG4B) was 14.2 µM (active) and the IC50 (Phospholipase A2) was 16.2 µM (active).

With `Clc1ccccc1-c1nc2ccccc2[nH]1` the EC50 [2] was 0.36 µM (active), the EC50 [3] was 0.289 µM (active) and the EC50 [4] was 2.24 µM (active). For the same compound, the EC50 (H4) was 13.7 µM (active).
